Like-named read-outs stand apart in the source and are kept apart here.

The conditions of this series: rcm bond, Zhan catalyst 1B.

As to `CCOC(=O)[C@@]12C[C@H]1/C=C\CCCCC[C@@H]1NC(=O)OCC(C)(C)CC=Cc3cc4c(nccc4cc3OC)O[C@@H]3C[C@@H](C(=O)N2)N(C3)C1=O`, where the note is “from C=CCC(C)(C)COC(=O)N[C@H]1CCCCC/C=C\[C@@H]2C[C@@]2(C(=O)OCC)NC(=O)[C@@H]2C[C@@H](Oc3nccc4cc(OC)c(C=C)cc34)CN2C1=O, DCM, 10.2 mM, 40.0 °C, 5.0 h”, the ring closure, yield of all isomers was found to be 80.8%.

For the setting “from C=CCCCCC[C@H](NC(=O)OC(C)(C)C)C(=O)N1C[C@H](Oc2nccc3cc(OC)c(Br)cc23)C[C@H]1C(=O)N[C@]1(C(=O)OCC)C[C@H]1C=C, DCM, 10.15 mM, 40.0 °C, 2.0 h”, `CCOC(=O)[C@@]12C[C@H]1/C=C\CCCCC[C@H](NC(=O)OC(C)(C)C)C(=O)N1C[C@H](Oc3nccc4cc(OC)c(Br)cc34)C[C@H]1C(=O)N2` had a ring closure, yield of all isomers of 70.1%.

As to `CCOC(=O)[C@@]12C[C@H]1C=CCCCCC[C@@H]1NC(=O)OCC(C)(C)CC=Cc3cc4c(cc(-c5ccccc5)nc4cc3OC)O[C@@H]3C[C@@H](C(=O)N2)N(C3)C1=O`, the ring closure, yield of all isomers (from C=CCCCCC[C@H](NC(=O)OCC(C)(C)CC=C)C(=O)N1C[C@H](Oc2cc(-c3ccccc3)nc3cc(OC)c(C=C)cc23)C[C@H]1C(=O)N[C@]1(C(=O)OCC)C[C@H]1C=C, DCM, 5.0 mM, 40.0 °C, 7.0 h) is 49%.

As for `COc1cc2nc(-c3ccccc3)cc3c2cc1C=CCCCOC(=O)N[C@H]1CCCCCC=C[C@@H]2C[C@@]2(C(=O)NS(=O)(=O)C2CC2)NC(=O)[C@@H]2C[C@H](CN2C1=O)O3`, the ring closure, yield of all isomers (from C=CCCCCC[C@H](NC(=O)OCCCC=C)C(=O)N1C[C@H](Oc2cc(-c3ccccc3)nc3cc(OC)c(C=C)cc23)C[C@H]1C(=O)N[C@]1(C(=O)NS(=O)(=O)C2CC2)C[C@H]1C=C, 1,2-dichloroethane, 4.73 mM, 90.0 °C, 3.0 h) amounted to 6.1%.
